Assay results as given in patent publication US8597660B2, “Therapeutic approach to neurodegenerative disorders using a TFP5-peptide” (The United States of America, as represented by the …, priority 2010, dated 2013).
“Also recorded” adds a separate entry of the source.

How the values were obtained:
Cdk5/P25 = Cdk5/P25 (Homo sapiens, UniProt Q00535); assay: In vitro kinase (pad) assay of active Cdk5/P25 with histone H1 as substrate; format: biochemical
Protocol: Kinase assays were performed as previously described (Veeranna, et al., J Neurosci 18(11), 4008-4021, 1998). Briefly, 7 days in culture (7 DIC) primary rat cortical neurons were infected with P25, P35, Cdk5 wild-type, dominant negative-Cdk5 and P5 using the lentiviral gene delivery as described earlier. Cdk5 was immunoprecipitated using the polyclonal C8 antibody overnight at 4° C. and immunoglobulin isolated using Protein A sepharose beads for 2 hours at 4° C. Immunoprecipitates were washed three times with lysis buffer and then once with 1× kinase buffer containing 20 mM Tris-Cl pH 7.4, 1 mM EDTA, 1 mM EGTA, 10 mM MgCl2, 10 mM sodium fluoride and 1 mM sodium orthovanadate. Endogenous Cdks were immunoprecipitated from HEK 293 cells using their respective antibodies and treated as above. Kinase assays were performed in the same buffer containing 1 mM DTT, 0.1 mM ATP and 0.185 MBq [γ-32P] ATP with 20 μg of histone H1 as the substrate. Phosphorylation was performed in a final volume of […] incubated at 30° C. for 60 minutes, stopped by the addition of 10% SDS sample buffer and heating at 95° C. for 5 minutes. Samples were separated by SDS-PAGE, gels were stained with Coomassie, destained, dried and exposed to autoradiography. In pad assays, 25 μl aliquots of the incubation mixture were placed on a Whatman p80 paper square, washed and dried and placed in a scintillation vial for counting.
These are GST-P1 (E211-A277 of SEQ ID NO: 16), 67 amino acid residues; GST-P2 (M237-A277), 41 residues; GST-P3 (E221-L267 of SEQ ID NO: 16), 47 residues; GST-P4 (E221-L249 of SEQ ID NO: 16), 29 residues and GST-P5 (K254-A277 of SEQ ID NO: 16) 24 residues. Each was incubated with active Cdk5/P25 in a kinase assay in vitro. […] FIG. 10 provides a comparison of P5 and CIP, relative to P35.
In a dose-dependent kinase assay the effective inhibitory concentration of P5 for both the Cdk5/P25 and Cdk5/P35 complexes was evaluated. His-P5 peptide was added at different concentrations to the in vitro assay containing 100 μM [γ32-P] ATP and histone H1. Inhibition increased progressively with increasing P5 concentration in both complexes (Compare FIGS. 2A, 2B with 2C, 2D).
P5, a 24 amino acid peptide derived from Cdk5 regulator p35, was modified by conjugating it with TAT PTD at the C-terminal end and with FITC (using a GGG linker) at the N-terminus to produce a fluorescent (FITC-labeled) TFP5 (SEQ ID NO: 2) peptide. In a dose-dependent kinase assay the effective inhibitory concentration of TFP5 for both the Cdk5/P25 and Cdk5/P35 complexes was evaluated. His-P5 peptide was added at different concentrations to the in vitro assay containing 100 μM [γ32-P] ATP and histone H1. […] Data represent means of four independent experiments with error bars representing SEM (*p≦0.05, **p≦0.001).

tau phosphorylation = assay: Aβ-induced tau phosphorylation in cortical neurons, Western blot; format: cell-based, rat; details: Aβ 6 h
Protocol: Primary cultures of rat cortical neurons were prepared from E-18 rat fetuses as described previously (Zheng et al., J Biol Chem 278(26), 24026-24032, 2003). After 7 days, cells were infected independently or co-infected with empty vector (EV), the constructs of P5, P25, P35, wild-type Cdk5 and dominant negative Cdk5 (changing Lys33 to Thr33) using the Adenoviral vector (pAdTrack-CMV) packaging system as described above. […] The cells were fixed for immunocytochemistry analyses (ICC) or lysed with lysis buffer for immunoprecipitation and Western blot analyses. Cortical neuron cultures were prepared and plated on the cover slips as described. Human embryo kidney cells (HEK293) were grown as described previously (Zheng et al., Eur J Biochem 269(18), 4427-4434, 2002). In these studies HEK293 cells on day 1, or neurons on day 5, were transfected with or without Myc-P5-GFP using Lipofectamine 2000 following the manufacturer's instructions.
Western blot analysis was performed as previously described (Zheng et al., Eur J Biochem 269(18), 4427-4434, 2002). In brief, an equal amount of total protein (20 μg/lane) was resolved on a 4-20% SDS polyacrylamide gel and blotted onto a polyvinylidene difluoride membrane. This membrane was incubated in blocking buffer containing 20 mM Tris-HCl (pH 7.4), 150 mM NaCl, and 0.1% (vol/vol) Tween 20 (TTBS) plus 5% dry milk (w/v) for 1 hour at room temperature followed by incubation overnight at 4° C. in primary antibodies (see antibodies). The membranes were then washed four times in TTBS (5 minutes/each) followed by incubation in secondary antibody (goat-antimouse or goat anti-rabbit IgG (H+L)-horseradish peroxidase (HRP) conjugate at a dilution of 1:3000) for 1 hour at room temperature. Western blots were analyzed using the Amersham Enhanced Chemiluminescence (ECL) kit following the manufacturer's instructions (GE Healthcare, Piscataway, N.J.).
Amyloid plaques and neurofibrillary tangles, pathological hallmarks of several neurodegenerative disorders, are linked to deregulated Cdk5 and neuronal death. According to one model, β amyloid, being toxic, may evoke abnormal calcium influx into neurons which activates calpains. […] Hyperactivation of Cdk5, leads to the aberrant phosphorylation of tau and neurofilaments in a number of neurodegenerative diseases including AD and ALS. For example, primary cortical neurons, when treated with Aβ1-42 are induced to form Cdk5/P25 complexes, hyperactive Cdk5 activity, hyperphosphorylation of tau, and neuronal apoptosis. To determine whether P5 will inhibit endogenous tau phosphorylation induced by Aβ treatment in cortical neurons, 7 day old cortical neurons, infected with empty vector (EV) or with P5 were treated with Aβ for 6 hours, lysed and prepared for Cdk5 immunoprecipitation and kinase assay. Aβ treatment causes an approximate 3-fold increase in endogenous Cdk5 activity as visualized by histone H1 phosphorylation (FIG. 4A, panel 5, lane 2; FIG. 4B).
; FIG. 4D). […] Tau antibodies p-Ser404, PHF antibody AT180 (recognizes p-Thr231) and p-Ser422 antibodies were used to observe whether P5 affects other tau phosphorylation residues (FIGS. 4E, 4F). […]. Tau 5 recognizes total tau, nonphosphorylated as well as phosphorylated.

Chain of Cdk5/P25 (Q00535 whole entry, species assumed): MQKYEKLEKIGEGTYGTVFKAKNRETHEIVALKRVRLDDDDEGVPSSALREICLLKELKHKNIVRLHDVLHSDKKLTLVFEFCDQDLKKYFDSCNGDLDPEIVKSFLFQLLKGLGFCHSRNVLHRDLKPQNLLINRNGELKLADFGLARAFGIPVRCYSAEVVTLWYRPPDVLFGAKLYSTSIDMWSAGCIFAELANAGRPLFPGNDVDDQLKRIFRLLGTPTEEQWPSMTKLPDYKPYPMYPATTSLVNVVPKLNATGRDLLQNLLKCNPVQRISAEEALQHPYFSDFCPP

- Inhibition of Cdk5/P25 activity (Cdk5/P25; 0.7 μM P5): approximately 70%
Substance: P5: 24 residue peptide derived from Cdk5 activator P35 (K254-A277 of SEQ ID NO: 16); Cdk5 inhibitory peptide (KEAFWDRCLSVINLMSSKMLQINA; listed as Homo sapiens)
- Specificity of inhibition, Cdk5/P25 versus Cdk5/P35 (Cdk5/P25; in vitro (test tube) assay, 0.05 to 1.2 μM): equally inhibits each Cdk5 complex in a dose-dependent manner; also recorded: not specific for Cdk5/P25; also recorded: non-specific in vitro
- Inhibition of Cdk5/P25 activity, comparison among peptides and CIP (Cdk5/P25; in vitro kinase assay, histone H1, FIG. 1): most effective inhibitor of Cdk5/P25; also recorded: more effective inhibitors of Cdk5/P25 activity than CIP
- Aβ-induced tau phosphorylation at Ser404 (tau phosphorylation; P5 infection): reduces phosphorylation at Thr 231 and Ser404; also recorded: significantly inhibits tau phosphorylation at S404 and T231
- Aβ-induced tau phosphorylation at Thr231 (AT180) (tau phosphorylation; P5 infection): reduces phosphorylation at Thr 231 and Ser404; also recorded: significantly inhibits tau phosphorylation at S404 and T231
- Aβ-induced tau phosphorylation at Ser422 (tau phosphorylation; P5 infection or roscovitine): only a modest affect on Ser 422; also recorded: slight decrease of tau phosphorylation at the Ser422 site, is not significant
- Aβ-induced tau phosphorylation detected by AT8 and p-Ser199/202 antibodies (tau phosphorylation; P5 infection or roscovitine): baseline levels of tau phosphorylation; also recorded: restoring it to basal levels
